Assay results: patent EP4596536A1 (Shanghai de Novo Pharmatech Co., Ltd., priority 2022, dated 2024)

target: T1, TLR8 (Homo sapiens, UniProt Q9NR97); assay: HEK-BLUE-hTLR8 cell SEAP reporter assay (Quanti-Blue); type: cell-based; conditions: HEK-BLUE-hTLR8 cells, 0.5 nM to 15 µM, 24 hours
T1 construct: host or cells: HEK293 (HEK-BLUE-hTLR8)
T1 sequence (Q9NR97 27-1041): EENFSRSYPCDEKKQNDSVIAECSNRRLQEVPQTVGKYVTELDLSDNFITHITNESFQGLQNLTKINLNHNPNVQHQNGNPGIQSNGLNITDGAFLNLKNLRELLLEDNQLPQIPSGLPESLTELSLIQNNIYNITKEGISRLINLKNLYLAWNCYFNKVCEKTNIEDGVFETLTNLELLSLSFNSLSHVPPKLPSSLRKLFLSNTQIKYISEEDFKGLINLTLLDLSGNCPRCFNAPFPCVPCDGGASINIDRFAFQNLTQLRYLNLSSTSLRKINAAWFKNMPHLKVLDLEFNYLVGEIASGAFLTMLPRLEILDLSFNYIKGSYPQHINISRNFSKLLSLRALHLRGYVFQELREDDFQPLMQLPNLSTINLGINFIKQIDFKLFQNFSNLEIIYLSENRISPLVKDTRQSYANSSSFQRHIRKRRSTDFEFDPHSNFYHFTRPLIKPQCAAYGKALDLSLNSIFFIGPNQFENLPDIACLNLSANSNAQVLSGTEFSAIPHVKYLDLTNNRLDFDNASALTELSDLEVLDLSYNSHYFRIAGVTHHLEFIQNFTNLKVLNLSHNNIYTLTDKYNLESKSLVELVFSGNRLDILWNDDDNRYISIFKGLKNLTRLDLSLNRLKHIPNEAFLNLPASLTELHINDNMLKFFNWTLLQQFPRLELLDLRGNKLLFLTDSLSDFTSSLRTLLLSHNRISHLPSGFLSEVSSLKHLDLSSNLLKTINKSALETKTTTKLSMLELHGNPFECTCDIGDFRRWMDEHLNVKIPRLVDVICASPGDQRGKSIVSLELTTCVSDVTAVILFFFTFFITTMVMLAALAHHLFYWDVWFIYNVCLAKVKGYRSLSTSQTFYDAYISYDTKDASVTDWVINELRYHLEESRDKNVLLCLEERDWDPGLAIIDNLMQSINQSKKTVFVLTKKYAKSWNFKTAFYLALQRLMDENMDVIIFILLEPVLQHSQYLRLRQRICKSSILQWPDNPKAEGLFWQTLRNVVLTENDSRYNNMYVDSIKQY
Method: In this experiment, the biological activity of TLR7 and TLR8 in the compound of formula I was detected using cell tests. This method was conducted in human embryonic kidney cells (HEK293) expressing TLR family members such as TLR4, TLR7, TLR8 or TLR9. TLR agonists activate TLRs, triggering the activation of downstream NF-kB, which in turn activates the secreted embryonic alkaline phosphatase (SEAP) reporter gene. The activity of SEAP was detected using the Quanti-Blue (InvivoGen) reagent, thereby reflecting the activities of TLR7 and TLR8 agonists.
The detailed experimental method was as follows: HEK-BLUE-hTLR7 and HEK-BLUE-hTLR8 cell lines were purchased from Invivogen Company and cultured in DMEM medium containing 4.5 g/L glucose (Sigma-Aldrich) and 10% fetal bovine serum under the conditions of temperature 37°C, humidity 95% and 5% CO2.
The compound was tested at a concentration ranging from 0.5 nM to 15 µM over a total of 10 concentration gradients. TLR7 or TLR8 agonists with known activity were added as positive controls, and 1 µL of DMSO was added as a negative control.
The cells were treated as follows: the cells were removed from the culture dish and centrifuged to remove the medium, and resuspended in a T-150 bottle with 10 mL of preheated PBS, 12 mL of preheated medium was added, and the cells were gently pipetted up and down and counted under a microscope. A 200,000/mL single-cell suspension was immediately prepared with medium and added to a 96-well plate at 200 µL/well (40,000/well). The final concentration of DMSO was 0.5%.
The compound was added and incubated in an incubator at 37°C, 5% CO2 for 24 hours.
A supernatant at 20 µL/well was aspirated into 180 µL of preheated Quanti-Blue at 37°C, incubated at 37°C for 1.5 hours, and detected for the absorbance (OD value) with a spectrophotometer at 650 nm. The formula for calculating the agonistic effect is as follows:
Effect % = (average OD value of the drug-administered group - average OD value of the DMSO group) / (average OD value of the positive drug group - average OD value of the DMSO group) × 100
Graphpad software was used to fit the concentration-effect curve, and EC50 was calculated. The test results are shown in Table 15 (A denotes < 250 nM, B denotes 250 nM-1 µM, C denotes 1 µM-2 µM, D denotes > 2 µM, and - denotes not listed or not tested): Table 15

EC50 [nM]	Molecule
< 250	CCCN(CCO)C(=O)C1=Cc2c(F)cc(C3(C(=O)Nc4cncc(CN)c4)CC3)cc2N=C(N)C1 [Compound 12, 2-amino-8-(1-((5-(aminomethyl)pyridin-3-yl)carbamoyl)cyclopropyl)-6-fluoro-N-(2-hydroxyethyl)-N-propyl-3H-benzo[b]azepine-4-formamide]
< 250	CCCN(CCC)C(=O)C1=Cc2c(F)cc(C3(C(=O)Nc4cncc(CN)c4)CC3)cc2N=C(N)C1 [Compound 13, 2-amino-8-(1-((5-(aminomethyl)pyridin-3-yl)carbamoyl)cyclopropyl)-6-fluoro-N,N-dipropyl-3H-benzo[b]azepine-4-formamide]
250 to 1000	CCCN(CCO)C(=O)C1=Cc2ccc(C3(C(=O)Nc4cnc5c(c4)CN(C(=O)C4COC(CN6C(=O)C=CC6=O)OC4)CC5)CC3)cc2N=C(N)C1 (single isomer, unassigned) [II-77, 2-amino-8-(1-((6-(2-((2,5-dioxo-2,5-dihydro-1H-pyrrol-1-yl)methyl)-1,3-dioxan-5-carbonyl)-5,6,7,8-tetrahydro-1,6-naphthyridin-3-yl)carbamoyl)cyclopropyl)-N-(2-hydroxyethyl)-N-propyl-3H-benzo[b]azepine-4-formamide]
250 to 1000	CCCN(CCO)C(=O)C1=Cc2ccc(C3(C(=O)Nc4cnc5c(c4)CN(C(=O)OCc4ccc(NC(=O)CCOCCOCCNC(=O)CCN6C(=O)C=CC6=O)cc4)CC5)CC3)cc2N=C(N)C1 [II-28, 4-(3-(2-(2-(3-(2,5-dioxo-2,5-dihydro-1H-pyrrol-1-yl)propionylamino)ethoxy)ethoxy)propionylamino)benzyl 3-(1-(2-amino-4-((2-hydroxyethyl)(propyl)carbamoyl)-3H-benzo[b]azepin-8-yl)cyclopropane-1-formylamino)-7,8-dihydro-1,6-naphthyridine-6(5H)-carboxylate]
250 to 1000	CCCN(CCO)C(=O)C1=Cc2c(F)cc(C3(C(=O)Nc4cncc(CNC(=O)CNC(=O)CCOCCOCCNC(=O)CN5C(=O)C=CC5=O)c4)CC3)cc2N=C(N)C1 [II-64, 2-amino-8-(1-((5-(17-(2,5-dioxo-2,5-dihydro-1H-pyrrol-1-yl)-3,6,16-trioxo-9,12-dioxa-2,5,15-triazaheptadecyl)pyridin-3-yl)carbamoyl)cyclopropyl)-N-(2-hydroxyethyl)-6-fluoro-N-propyl-3H-benzo[b]azepine-4-formamide]
< 250	CCCN(CCO)C(=O)C1=Cc2ccc(C3(C(=O)Nc4cnc5c(c4)CN(C(=O)[C@H](CCCNC(N)=O)NC(=O)[C@@H](N)C(C)C)CC5)CC3)cc2N=C(N)C1 [Example 33, 2-amino-8-(1-((6-((S)-2-((S)-2-amino-3-methylbutanoylamino)-5-ureidopentanoyl)-5,6,7,8-tetrahydro-1,6-naphthyridin-3-yl)carbamoyl)cyclopropyl)-N-(2-hydroxyethyl)-N-propyl-3H-benzo[b]azepine-4-formamide]
250 to 1000	(S)-1-((1-(3-(1-(2-amino-4-((2-hydroxyethyl)(propyl)carbamoyl)-3H-benzo[b]azepin-8-yl)cyclopropyl-1-amido)-7,8-dihydro-1,6-naphthyridin-6(5H)-yl)-1-oxo-5-ureidopentan-2-yl)carbamoylamino)cyclobutyl-1-carboxylic acid [Example 35]
250 to 1000	CCCN(CCO)C(=O)C1=Cc2ccc(C3(C(=O)Nc4cnc5c(c4)CN(C(=O)OCc4ccc(NC(=O)[C@H](CCCNC(N)=O)NC(=O)[C@@H](NC(=O)Cc6ccc(N7C(=O)C=CC7=O)cc6)C(C)C)cc4)CC5)CC3)cc2N=C(N)C1 [II-97]
250 to 1000	CCCN(CCO)C(=O)C1=Cc2ccc(C3(C(=O)Nc4cnc5c(c4)CN(C(=O)OCc4ccc(NC(=O)[C@H](CCCNC(N)=O)NC(=O)[C@@H](NC(=O)C6COC(CN7C(=O)C=CC7=O)OC6)C(C)C)cc4)CC5)CC3)cc2N=C(N)C1 (stereo partly shown) [II-98]
250 to 1000	CCCN(CCO)C(=O)C1=Cc2ccc(C3(C(=O)Nc4cnc5c(c4)CN(C(=O)CCOCCOCCNC(=O)CCN4C(=O)C=CC4=O)CC5)CC3)cc2N=C(N)C1 [II-7, 2-amino-8-(1-((6-(3-(2-(2-(3-(2,5-dioxo-2,5-dihydro-1H-pyrrol-1-yl)propionylamino)ethoxy)ethoxy)propionyl)-5,6,7,8-tetrahydro-1,6-naphthyridin-3-yl)carbamoyl)cyclopropyl)-N-(2-hydroxyethyl)-N-propyl-3H-benzo[b]azepine-4-formamide]
250 to 1000	CCCN(CCO)C(=O)C1=Cc2ccc(C3(C(=O)Nc4cnc5c(c4)CN(C(=O)CCOCCOCCNC(=O)OCc4ccc(NC(=O)[C@H](CCCNC(N)=O)NC(=O)[C@@H](NC(=O)CCCCCN6C(=O)C=CC6=O)C(C)C)cc4)CC5)CC3)cc2N=C(N)C1 [II-104]
< 250	CCCN(CCC)C(=O)C1=Cc2ccc(C3(C(=O)Nc4ccc5c(c4)CNCC5)CC3)cc2N=C(N)C1 [Compound 15, 2-amino-N,N-dipropyl-8-(1-((1,2,3,4-tetrahydroisoquinolin-7-yl)carbamoyl)cyclopropyl)-3H-benzo[b]azepine-4-formamide]

Molecule	EC50 [nM]
CCCN(CCO)C(=O)C1=Cc2ccc(C3(C(=O)Nc4cnc5c(c4)CN(C(=O)CCOCCOCCOCCOCCOCCOCCNC(=O)CCN4C(=O)C=CC4=O)CC5)CC3)cc2N=C(N)C1 [II-12, 2-amino-8-(1-((6-(1-(2,5-dioxo-2,5-dihydro-1H-pyrrol-1-yl)-3-oxo-7,10,13,16,19,22-hexaoxa-4-azapentacosan-25-acyl)-5,6,7,8-tetrahydro-1,6-naphthyridin-3-yl)carbamoyl)cyclopropyl)-N-(2-hydroxyethyl)-N-propyl-3H-benzo[b]azepine-4-formamide]	250 to 1000
CCCN(OCC)C(=O)C1=Cc2ccc(C3(C(=O)Nc4cnc5c(c4)CN(C(=O)CCOCCOCCOCCOCCOCCOCCNC(=O)CCN4C(=O)C=CC4=O)CC5)CC3)cc2N=C(N)C1 [II-66, 2-amino-8-(1-((6-(1-(2,5-dioxo-2,5-dihydro-1H-pyrrol-1-yl)-3-oxo-7,10,13,16,19,22-hexaoxa-4-azapentacosan-25-acyl)-5,6,7,8-tetrahydro-1,6-naphthyridin-3-yl)carbamoyl)cyclopropyl)-N-ethoxy-N-propyl-3H-benzo[b]azepine-4-formamide]	250 to 1000
CCCN(CCC)C(=O)C1=Cc2ccc(C3(C(=O)Nc4cncc(CN)c4)CC3)cc2N=C(N)C1 [Compound 16]	< 250
CCCN(CCO)C(=O)C1=Cc2ccc(C3(C(=O)Nc4cnc5c(c4)CN(C(=O)CNC(=O)CCOCCOCCNC(=O)CCCNC(=O)CN4C(=O)C=CC4=O)CC5)CC3)cc2N=C(N)C1 [II-24, 2-amino-8-(1-((6-(20-(2,5-dioxo-2,5-dihydro-1H-pyrrol-1-yl)-4,14,19-trioxo-7,10-dioxa-3,13,18-triazaeicosanacyl)-5,6,7,8-tetrahydro-1,6-naphthyridin-3-yl)carbamoyl)cyclopropyl)-N-(2-hydroxyethyl)-N-propyl-3H-benzo[b]azepine-4-formamide]	250 to 1000
